In patent US9101616B2, “Aryl substituted carboxamide derivatives as calcium or sodium channel blockers” (RaQualia Pharma Inc., priority 2009, dated 2015):

target: T1, human T-type channel alpha-1H (CaV 3.2) (Homo sapiens, UniProt O95180); assay: Ca2+ Influx Assay (cell-based fluorescent, FDSS); conditions: HEK 293 cells expressing human CaV 3.2
T1 construct: expressed in transfected cells; host or cells: HEK 293
Description: Inhibition of T-type calcium channel activity was determined by cell-based flu-orescent Ca^2+ influx assay, in which potassium ionophore was added to decrease resting membrane potential and extra-cellular high-K^+ stimulation was used to modulate the membrane potential of the cell. The changes in fluorescent signal were monitored by the cell imaging technology by Hamamatsu Photonics's Functional Drug Screening System (FDSS).
HEK 293 cells expressing the human T-type channel alpha-1H (CaV 3.2) were maintained in DMEM supplemented with 10% heat-inactivated FBS, 100 units/ml Penicillin, 100 microg/ml Streptomycin, 150 microg/ml Zeocin, 300 microg/ml Geneticin. The cells were grown in a 5% CO2 humidified incubator at 37° C.
• 1. Cells were harvested and seeded in a poly-D-lysine coated black-sided clear bottom 384-well plate at density of 10,000 cells/well at 24 hours prior to assay. • 2. Incubate at 37° C. in 5% CO2. Day Two: • 1. Wash each well with assay buffer (see below) and leave 20 RI using plate washer, ELx-405 Select CW (BIO-TEK). • 2. Add 20 μL of assay buffer containing 6 μM Fluo-4-AM (Molecular Probes) and 0.005% Pluronic F-127 to each well. • 3. Incubate the plate at 37° C. for 1 hour. • 4. Wash each well assay buffer (see below) and leave 20 μl using plate washer, ELx-405 Select CW (BIO-TEK). • 5. Add 10 μl of compound solution into each well by FDSS6000 and leave the plate for 4.5 min, and then add 10 μl of potassium ionophore solution. • 6. Add 20 μl of high-K^+ depolarizing solution (see below) and monitor the change of fluorescent signal.
The IC50 values for compounds of the present invention were determined from 7-point dose-response studies. Curves were generated using the average of duplicate wells for each data point. Finally, the IC50 values are calculated with the best-fit dose curve determined by XLfit.

T1 sequence (O95180 whole entry): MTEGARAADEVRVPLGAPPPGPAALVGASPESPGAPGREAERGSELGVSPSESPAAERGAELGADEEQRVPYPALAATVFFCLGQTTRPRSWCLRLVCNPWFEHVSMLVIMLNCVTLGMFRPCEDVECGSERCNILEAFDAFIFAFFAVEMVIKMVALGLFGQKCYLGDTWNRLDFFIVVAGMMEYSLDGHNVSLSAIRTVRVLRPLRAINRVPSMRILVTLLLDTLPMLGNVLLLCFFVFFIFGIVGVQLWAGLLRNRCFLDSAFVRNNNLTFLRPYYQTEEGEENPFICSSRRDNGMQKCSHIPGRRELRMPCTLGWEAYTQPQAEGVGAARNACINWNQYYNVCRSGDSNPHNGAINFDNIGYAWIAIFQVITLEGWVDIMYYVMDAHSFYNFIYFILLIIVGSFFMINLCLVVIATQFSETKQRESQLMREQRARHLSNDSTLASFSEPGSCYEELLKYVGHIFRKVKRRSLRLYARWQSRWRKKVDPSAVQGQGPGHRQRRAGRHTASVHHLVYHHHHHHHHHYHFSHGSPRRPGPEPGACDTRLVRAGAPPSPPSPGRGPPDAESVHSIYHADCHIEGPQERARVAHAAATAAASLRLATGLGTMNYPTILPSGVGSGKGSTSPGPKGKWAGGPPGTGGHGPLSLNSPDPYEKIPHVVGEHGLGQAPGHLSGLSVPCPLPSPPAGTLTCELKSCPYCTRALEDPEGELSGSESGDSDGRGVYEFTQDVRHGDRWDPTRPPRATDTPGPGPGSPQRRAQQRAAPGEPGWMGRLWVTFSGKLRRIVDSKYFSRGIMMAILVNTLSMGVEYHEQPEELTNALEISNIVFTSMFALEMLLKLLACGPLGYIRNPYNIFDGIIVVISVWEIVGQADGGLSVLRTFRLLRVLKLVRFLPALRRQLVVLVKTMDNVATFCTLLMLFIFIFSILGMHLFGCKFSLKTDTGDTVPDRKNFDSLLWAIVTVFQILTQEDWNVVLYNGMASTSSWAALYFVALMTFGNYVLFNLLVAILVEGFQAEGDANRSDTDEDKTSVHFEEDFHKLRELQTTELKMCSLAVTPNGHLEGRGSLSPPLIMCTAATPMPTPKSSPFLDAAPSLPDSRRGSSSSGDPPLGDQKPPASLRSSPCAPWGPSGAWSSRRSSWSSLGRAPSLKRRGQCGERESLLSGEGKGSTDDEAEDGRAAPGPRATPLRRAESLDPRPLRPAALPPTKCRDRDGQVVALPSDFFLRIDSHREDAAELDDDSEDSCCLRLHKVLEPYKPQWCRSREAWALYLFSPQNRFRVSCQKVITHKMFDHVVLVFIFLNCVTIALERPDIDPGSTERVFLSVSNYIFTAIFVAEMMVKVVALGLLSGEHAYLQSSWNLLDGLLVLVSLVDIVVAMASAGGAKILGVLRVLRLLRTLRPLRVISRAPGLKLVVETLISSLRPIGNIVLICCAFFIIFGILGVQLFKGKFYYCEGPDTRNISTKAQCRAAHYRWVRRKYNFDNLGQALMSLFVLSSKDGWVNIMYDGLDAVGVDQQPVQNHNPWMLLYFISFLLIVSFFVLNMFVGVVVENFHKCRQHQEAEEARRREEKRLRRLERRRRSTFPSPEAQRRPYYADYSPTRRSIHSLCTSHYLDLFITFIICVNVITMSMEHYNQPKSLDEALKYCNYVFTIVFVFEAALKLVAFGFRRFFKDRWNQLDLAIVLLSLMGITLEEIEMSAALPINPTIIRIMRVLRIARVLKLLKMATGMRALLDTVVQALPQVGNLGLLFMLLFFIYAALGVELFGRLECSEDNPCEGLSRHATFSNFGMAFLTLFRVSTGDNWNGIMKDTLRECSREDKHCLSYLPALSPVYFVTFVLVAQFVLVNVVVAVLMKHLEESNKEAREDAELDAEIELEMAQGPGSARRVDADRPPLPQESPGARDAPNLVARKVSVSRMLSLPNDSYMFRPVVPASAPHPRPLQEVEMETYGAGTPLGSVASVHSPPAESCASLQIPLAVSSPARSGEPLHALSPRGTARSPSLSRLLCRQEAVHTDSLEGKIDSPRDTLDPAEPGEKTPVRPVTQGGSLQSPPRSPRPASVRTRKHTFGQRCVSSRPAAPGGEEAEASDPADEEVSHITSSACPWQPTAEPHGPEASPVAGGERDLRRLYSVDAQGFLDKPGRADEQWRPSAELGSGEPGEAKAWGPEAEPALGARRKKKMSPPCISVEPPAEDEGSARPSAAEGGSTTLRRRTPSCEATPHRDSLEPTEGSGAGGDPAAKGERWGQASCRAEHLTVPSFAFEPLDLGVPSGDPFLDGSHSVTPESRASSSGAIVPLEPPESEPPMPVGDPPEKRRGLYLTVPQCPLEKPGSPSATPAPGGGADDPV

For `Cc1cccc([C@H]2C[C@@H]2C(=O)N[C@H](C)c2ccc(OCC3CC3)cn2)c1` (relative stereo) [Example 267, (1S*,2S*)-N-((R)-1-(5-(cyclopropylmethoxy)pyridin-2-yl)ethyl)-2-m-tolylcyclopropanecarboxamide], which IC50 is on record?
The IC50 was at most 300 nM.

For `C[C@@H](NC(=O)[C@@H]1C[C@H]1c1cc2ccccc2[nH]1)c1cnc(OCC(F)(F)F)cn1` (relative stereo) [Example 226, (1R*,2R*)-2-(1H-indol-2-yl)-N-((R)-1-(5-(2,2,2-trifluoroethoxy)pyrazin-2-yl)ethyl)cyclopropanecarboxamide], which IC50 is on record?
The IC50 was at most 300 nM.

`C[C@@H](NC(=O)CCCc1c[nH]c2ccccc12)c1ccc(OCC(F)(F)F)cn1` [Example 57, (R)-4-(1H-indol-3-yl)-N-(1-(5-(2,2,2-trifluoroethoxy)pyridin-2-yl)ethyl)butanamide] was tested. Which IC50 did it give?
The IC50 was at most 300 nM.

With `Cc1cccc([C@H]2C[C@@H]2C(=O)N[C@H](C)c2cnc(OCC(F)(F)F)cn2)c1` (relative stereo) [Example 273, (1S*,2S*)-2-m-tolyl-N-((R)-1-(5-(2,2,2-trifluoroethoxy)pyrazin-2-yl)ethyl)cyclopropanecarboxamide] as the compound, how does the IC50 read?
The IC50 was at most 300 nM.

With `C[C@@H](NC(=O)C1CC1c1cc2cc(F)ccc2[nH]1)c1cnc(OCC(F)(F)F)cn1` (stereo in doubt) [Example 171, trans-2-(5-fluoro-1H-indol-2-yl)-N-((R)-1-(5-(2,2,2-trifluoroethoxy)pyrazin-2-yl)ethyl)cyclopropanecarboxamide] as the compound, how does the IC50 read?
The IC50 was at most 300 nM.

`C[C@@H](NC(=O)C1CC1c1ccc2cc[nH]c2c1)c1ccc(OCC(F)(F)F)nc1` (stereo in doubt) [Example 147, trans-2-(1H-indol-6-yl)-N-((R)-1-(6-(2,2,2-trifluoroethoxy)pyridin-3-yl)ethyl)cyclopropanecarboxamide] was tested. Which IC50 did it give?
Its IC50 is at most 300 nM.

For `C[C@@H](NC(=O)C1CC1c1ccc2ccccc2n1)c1ccc(OCC(F)(F)F)nc1` (stereo in doubt) [Example 205, trans-2-(quinolin-2-yl)-N-((R)-1-(6-(2,2,2-trifluoroethoxy)pyridin-3-yl)ethyl)cyclopropanecarboxamide], which IC50 is on record?
The IC50 was at most 300 nM.

For `C[C@@H](NC(=O)[C@H]1C[C@@H]1c1c(F)cc(F)cc1F)c1ccc(OCC(F)(F)F)cn1` (relative stereo) [Example 250, (1S*,2S*)-N-((R)-1-(5-(2,2,2-trifluoroethoxy)pyridin-2-yl)ethyl)-2-(2,4,6-trifluorophenyl) cyclopropanecarboxamide], which IC50 is on record?
Its IC50 is at most 300 nM.

For `C[C@@H](NC(=O)[C@@H]1C[C@H]1c1ccc2ccccc2n1)c1cnc(OCC(F)(F)F)cn1` (relative stereo) [Example 222, (1R*,2R*)-2-(quinolin-2-yl)-N-((R)-1-(5-(2,2,2-trifluoroethoxy)pyrazin-2-yl)ethyl)cyclopropanecarboxamide], which IC50 is on record?
Its IC50 is at most 300 nM.

How did the IC50 turn out when `C[C@@H](NC(=O)[C@@H]1C[C@H]1c1cccc2cc[nH]c12)c1cnc(OCC(F)(F)F)cn1` (relative stereo) [Example 323, (1R*,2R*)-2-(1H-indol-7-yl)-N-((R)-1-(5-(2,2,2-trifluoroethoxy)pyrazin-2-yl)ethyl)cyclopropanecarboxamide] was run?
The IC50 was at most 300 nM.

For `C[C@@H](NC(=O)C1CC1c1ccc2ncccc2c1)c1ccc(OCC(F)(F)F)nc1` (stereo in doubt) [Example 207, trans-2-(quinolin-6-yl)-N-((R)-1-(6-(2,2,2-trifluoroethoxy)pyridin-3-yl)ethyl)cyclopropanecarboxamide], which IC50 is on record?
The IC50 was at most 300 nM.

For `C[C@@H](NC(=O)C1CC1COc1ccc(Cl)cc1)c1ccc(OCC(F)(F)F)cn1` (stereo in doubt) [Example 169, trans-2-((4-chlorophenoxy)methyl)-N-((R)-1-(5-(2,2,2-trifluoroethoxy)pyridin-2-yl)ethyl)cyclopropanecarboxamide], which IC50 is on record?
Its IC50 is at most 300 nM.

How did the IC50 turn out when `C[C@@H](NC(=O)C1CC1c1cc2cc(F)ccc2[nH]1)c1ccc(OCC2CC2)cn1` (stereo in doubt) [Example 181, trans-N-((R)-1-(5-(cyclopropylmethoxy)pyridin-2-yl)ethyl)-2-(5-fluoro-1H-indol-2-yl)cyclopropanecarboxamide] was run?
The IC50 was at most 300 nM.
